Common to all, as to format: cell-based, Wistar male rats
Test [1] relates to metaphysis tissue of the femur (cancellous bone). Briefly: Bone calcium level in cultured femoral metaphysis tissue pieces. The conditions noted are these: metaphysis tissue; for Bone calcium level: mean ± SE; for Significant effect on increasing calcium level in the bone tissue (in words): Table 3 concentrations. Here is the method: (§1) The femurs were extracted from rats (Wistar male rats; 4 to 5 weeks old) (purchased from Japan SLC Co., Ltd. and fed with solid Oriental yeast (MF)) under anesthesia with ether under a germfree condition. The femurs were each washed with 0.25 M sucrose solution, and then divided into the diaphysis (cortical bone) and metaphysis (cancellous bone). The bone tissue pieces were cultured in a culture medium (Dulbecco's modified culture medium containing 5% of glucose; serum-free medium) containing. β-cryptoxanthin, etc. at […] in an incubator filled with 5% CO2-95% air for 48 hours. β-cryptoxanthin used was “β-cryptoxanthin” of Extrasynthase Co., cycloheximide used was “Cycloheximide” of Sigma Co. Ltd., β-carotene was “β-carotene” of Sigma ? , xanthine was “Xanthine” of Sigma Co, Ltd., parathormone was “Parathormone” of Sigma Co. Ltd. and prostaglandin E2 was “Prostaglandin E2” of Sigma Co. Ltd. In the control, only the culture medium was used without β-cryptoxanthin or the like.
(§2) Bone calcium level in the bone tissue was determined. After the culture in the incubator, the tissue pieces were washed with 0.25 M sucrose solution and dried and then the bone was weighed. Then concentrated nitric acid was added to the tissue pieces. After the incineration at 120° C. for 12 hours, the bone calcium level was determined with an atomic absorption photometer (“Perkin-Elmer 303” of Perkin-Elmer Co.).
The bone component-increasing effect of β-cryptoxanthin was examined. […] Calcium level in the bone tissue, alkaline phosphatase activity (enzyme for accelerating the bone calcification) and the amount of deoxyribonucleic acid (DNA; index of number of cells in the bone tissue) were determined by the same methods as in Example 1. In each test group, the determination vas conducted 6 to 8 times and the results were represented by the average value and the standard error. The significant difference was determined by Student's t-test. The result was compared with that of the control. When P value was not higher than 0.01 (**) or not higher than 0.05 (*), the results were statistically significant.

The test system of test [2] is diaphysis tissue of the femur (cortical bone). Briefly: Bone alkaline phosphatase activity in cultured femoral diaphysis tissue pieces. To be noted: Table 2 (protein synthesis inhibitor experiment), diaphysis tissue, 10^−6 M (each agent), mean ± SE, n=6. Here is the method:
as §1
(§3) The expression level of alkaline phosphatase, which is the most important enzyme for the acceleration of the calcification of bones, was examined. The tissue pieces cultured in the incubator were washed in 0.25 M sucrose solution, then pulverized in 3 ml of 65 mM barbital buffer (pH 7-4) and treated with ultrasonic waves. The resultant liquid was centrifuged. The supernatant, as the enzyme solution, was determined by a method of Walter ad Schutt in Method of Enzymatic Analysis, Vol. 1-2, p. 856, Academic Press, New York, 1965). Namely, this method was carried out as follows: p-nitrophenylphosphoric acid was used as the substrate. 0.05 ml of the enzyme solution was added to 2 ml of diethanolamine buffer (pH 9.8). After the incubation at 37° C. for 30 minutes, 10 ml of 0.05 N NaOH was added to the mixture. The absorbance (405 nm) was determined with a spectrophotometer to determine bone alkaline phosphatase activity of a bone remedy or a compound known to be effective for the bones.
(§4) The bone component-increasing effect of β-cryptoxanthin was examined. The diaphysis and metaphysis tissue of the femur was cultured in the above-described culture medium containing β-cryptoxanthin ([…]) for 48 hours. Calcium level in the bone tissue, alkaline phosphatase activity (enzyme for accelerating the bone calcification) and the amount of deoxyribonucleic acid (DNA; index of number of cells in the bone tissue) were determined by the same methods as in Example 1. In each test group, the determination vas conducted 6 to 8 times and the results were represented by the average value and the standard error. The significant difference was determined by Student's t-test. The result was compared with that of the control. When P value was not higher than 0.01 (**) or not higher than 0.05 (*), the results were statistically significant.

Test [3] has the same test system. Nature of the test: Bone DNA level in cultured femoral diaphysis tissue pieces. The conditions noted are these: Table 2 (protein synthesis inhibitor experiment), diaphysis tissue, 10^−6 M (each agent), mean ± SE, n=6. How it is done: as §1
(§5) DNA level was determined as an index of the number of cells in the bone tissue. After the culture in an incubator, the tissue pieces were washed with 0.25 M sucrose solution and then the wet weight of them was determined. They were pulverized in 4 ml of 0.1 N NaOH. After the osmosis at 4° C. for 24 hours, the liquid mixture was centrifuged. The supernatant was taken as the sample and determined by a method of Ceriotti et al. (J. Biol. Chem., 241; 34-77, 1951). Namely, 1 ml of concentrated hydrochloric acid and 1 ml of 0.04% indole solution were added to 2 ml of the sample and then the resultant mixture was heated to 100° C. in boiling water. After quenching followed by the extraction with 4 ml of chloroform, the chloroform layer was taken to determine bone DNA level with a spectrophotometer (490 nm).
as §4

Test [4] concerns metaphysis tissue of the femur (cancellous bone). Briefly: Bone alkaline phosphatase activity in cultured femoral metaphysis tissue pieces. The conditions noted are these: Table 2 (protein synthesis inhibitor experiment), metaphysis tissue, 10^−6 M (each agent), mean ± SE, n=6. Here is the method:
as §1, §3, §4

Test [5] relates to diaphysis tissue of the femur (cortical bone). Nature of the test: Bone calcium level in cultured femoral diaphysis tissue pieces. The conditions noted are these: diaphysis tissue; for Bone calcium level: mean ± SE; for Significant effect on increasing calcium level in the bone tissue (in words): Table 3 concentrations. How it is done: as §1, §2, §4
In test [6] the test system is metaphysis tissue of the femur (cancellous bone). Briefly: Bone DNA level in cultured femoral metaphysis tissue pieces. The conditions noted are these: Table 2 (protein synthesis inhibitor experiment), metaphysis tissue, 10^−6 M (each agent), mean ± SE, n=6. Here is the method:
as §1, §5, §4

Test [7] relates to metaphysis tissue of the femur. Briefly: Bone resorption (PTH or prostaglandin E2): bone calcium level in cultured metaphysis tissue. Here is the method: as §1, §2
(§6) The bone mineral dissolution-inhibiting effect of β-cryptoxanthin was examined. […] PTH also has a pathophysiologic role on the expression of osteoporosis caused by the aging. It is known that prostaglandin E2 also causes physiologic bone mineral dissolution. The diaphysis or metaphysis tissue of the femur was cultured in the presence of 10^−7 M PTH or 10^−5 M prostaglandin E2 for 48 hours and then calcium level in the bone tissue was determined. In another experiment, the culture was conducted in the same manner as that described above in the coexistence of them and β-cryptoxanthin (10^−8 M to 10^−6 M) and then calcium level in the bone tissue was determined. In each test group, the determination was conducted 6 to 8 times and the results were represented by the average value and the standard error. The significant difference was determined by Student's t-test. The result was compared with that of the control. When P value was not higher than 0.01 (*) as compared with the control or it is not higher than 0.1 (#) as compared with that of prostaglandin E2, the results were statistically significant.

Test [8] deals with diaphysis tissue of the femur. Briefly: Bone resorption (PTH or prostaglandin E2): bone calcium level in cultured diaphysis tissue. How it is done: as §1, §2, §6
Setting [9] is: Table 2 (protein synthesis inhibitor experiment), 10^−6 M (each agent), n=6.
Where [10] appears, read: Comparative Example (Table 3), 10^−6 M, 48 h culture.
Where [11] appears, read: Comparative Example (Table 3), 10^−7 M, 48 h culture.
The mark [12] stands for this setting: 10^−7 M PTH, 48 h culture, vs control.

Marks after values point to notes of the source that are not given here.

Consider `C[C@@H]1C[C@@H]([C@H](O)CC2CC(=O)NC(=O)C2)C(=O)[C@@H](C)C1` [Cycloheximide, reference compound], for which the Bone calcium level in test [1] (setting [9]) was found to be 156.4 ± 2.81 mg/g dry weight; in test [5] (setting [9]) it was 204.0 ± 15.59 mg/g dry weight. The “Bone alkaline phosphatase activity” value is reported as 534.5 ± 64.2 nmol/min/mg protein in test [2] and 948.8 ± 21.1 nmol/min/mg protein in test [4]. Besides, the “Bone DNA level” value turned out to be 1.299 ± 0.127 mg/g bone wet weight in test [3] and 3.001 ± 0.454 mg/g bone wet weight in test [6].

For the molecule `CCCCC[C@H](O)/C=C/[C@H]1[C@H](O)CC(=O)[C@@H]1C/C=C\CCCC(=O)O` [Prostaglandin E2, reference compound], the “Effect of prostaglandin E2 on calcium level in the bone tissue (in words)” value was “significant reduction” in test [7] (metaphysis tissue, prostaglandin E2 10^−5 M) and “significant reduction” in test [8] (diaphysis tissue, prostaglandin E2 10^−5 M). Also, the Bone calcium level in test [7] (metaphysis tissue, prostaglandin E2 10^−6 M alone, 48 h culture) was 163.5 ± 1.47* mg/g dry weight; in test [8] (diaphysis tissue, prostaglandin E2 10^−5 M alone, 48 h culture), 182.8 ± 4.06* mg/g dry weight.

Regarding `Oc1nc(O)c2[nH]cnc2n1` [Xanthine, 2,6-dihydroxypurine, reference compound], the Bone calcium level is on record as 188.2 ± 3.34 mg/g dry weight in test [1] (setting [10]), 189.8 ± 3.30 mg/g dry weight in test [1] (setting [11]), 240.2 ± 8.46 mg/g dry weight in test [5] (setting [10]) and 228.6 ± 7.08 mg/g dry weight in test [5] (setting [11]). Further, the “Significant effect on increasing calcium level in the bone tissue (in words)” value in test [1] (48 h culture) and in test [5] (48 h culture) was “could not be obtained” each time.

`CC1=C(/C=C/C(C)=C/C=C/C(C)=C/C=C/C=C(C)/C=C/C=C(C)/C=C/C2=C(C)CCCC2(C)C)C(C)(C)CCC1` [β-carotene, reference compound]: the Bone calcium level in test [1] (setting [10]) turned out to be 189.4 ± 8.06 mg/g dry weight; in test [1] (setting [11]), 195.4 ± 10.10 mg/g dry weight; in test [5] (setting [10]), 215.6 ± 2.78 mg/g dry weight; in test [5] (setting [11]) it was 232.2 ± 6.66 mg/g dry weight. Further, the “Significant effect on increasing calcium level in the bone tissue (in words)” value in test [1] (48 h culture) and in test [5] (48 h culture) was “could not be obtained” in each case.

B1: Parathyroid hormone: peptide hormone secreted from the accessory thyroid, causes bone mineral dissolution (bone resorption); “Parathormone” of Sigma (peptide, UniProt P01270 32-115, looked up)
Parathyroid hormone: SVSEIQLMHNLGKHLNSMERVEWLRKKLQDVHNFVALGAPLAPRDAGSQRPRKKEDNVLVESHEKSLGEADKADVNVLTKAKSQ
modifications: Parathyroid hormone
notes: peptide hormone secreted from the accessory thyroid, causes bone mineral dissolution (bone resorption); “Parathormone” of Sigma
B1: the “Effect of PTH on calcium level in the metaphysis tissue (in words)” value in test [7] (setting [12]) was “significantly reduced”. For the same molecule, the Bone calcium level in test [7] (metaphysis tissue, parathyroid hormone 10^−7 M alone, 48 h culture) is on record as 167.0 ± 0.96* mg/g dry weight; in test [8] (diaphysis tissue, parathyroid hormone 10^−7 M alone, 48 h culture), 180.0 ± 3.23* mg/g dry weight. For the same molecule, in test [8] (setting [12]), the “Effect of PTH on calcium level in the diaphysis tissue (in words)” value is “significantly reduced”.
